Source: patent US9206457B2, “Utilization of pharmacological chaperones to improve manufacturing and purification of biologics” (Amicus Therapeutics, Inc., priority 2009, dated 2015)
Substitutions are numbered along the chain they refer to.

How the values were obtained:
α-Gal A [1] = target: T1, α-Gal A (Homo sapiens, UniProt P06280); assay: α-Gal A activity in conditioned media of COS-7 cells transfected with GLA plasmid, 72 h; format: cell-based; details: 72 hours expression
T1 construct: expressed in transfected cells; host or cells: COS-7
T1 sequence (P06280 32-429): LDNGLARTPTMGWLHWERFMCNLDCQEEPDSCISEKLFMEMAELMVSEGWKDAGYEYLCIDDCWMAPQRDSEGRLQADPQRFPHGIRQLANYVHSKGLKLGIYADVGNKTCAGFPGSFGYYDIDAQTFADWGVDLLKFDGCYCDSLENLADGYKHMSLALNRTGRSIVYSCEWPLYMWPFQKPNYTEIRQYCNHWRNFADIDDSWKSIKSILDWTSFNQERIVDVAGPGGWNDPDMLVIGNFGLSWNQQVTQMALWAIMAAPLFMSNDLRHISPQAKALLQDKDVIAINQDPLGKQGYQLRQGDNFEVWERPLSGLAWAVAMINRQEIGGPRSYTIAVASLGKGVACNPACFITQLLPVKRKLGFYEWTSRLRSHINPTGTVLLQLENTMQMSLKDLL
Experimental: COS-7 cells were transiently transfected with empty vector or a plasmid coding for the α-Gal A gene (GLA). […] After 72-hours of protein expression, the conditioned media from each transfection was harvested, and the level of α-Gal A activity was assessed using the substrate […].

α-Gal A [2] = target: T1, α-Gal A; assay: SYPRO Orange α-Gal A denaturation over time at 37° C.; format: binding; details: 50 μM DGJ added at 3 or 6 hours, pH 7.4, 37° C.
α-Gal A (Fabrazyme®) = target: T2, α-Gal A (Fabrazyme®) (Homo sapiens, UniProt P06280); assay: SYPRO Orange thermal stability assay (heat denaturation) of α-Gal A; format: binding; details: 10 and 100 μM DGJ, pH 7.4
T2 construct: purchased
T2 sequence (P06280 32-429): T1 sequence (P06280 32-429)

α-Gal A [3] = target: T1, α-Gal A; assay: α-Gal A activity in conditioned media of transiently transfected COS-7 cells, 48 h, concanavalin A capture; format: cell-based; details: 100 μM chaperone, 48 hours expression
acid β-glucosidase = target: T3, acid β-glucosidase (Homo sapiens, UniProt P04062); details: 100 μM chaperone, 48 hours expression, COS-7
T3 sequence (P04062 40-536): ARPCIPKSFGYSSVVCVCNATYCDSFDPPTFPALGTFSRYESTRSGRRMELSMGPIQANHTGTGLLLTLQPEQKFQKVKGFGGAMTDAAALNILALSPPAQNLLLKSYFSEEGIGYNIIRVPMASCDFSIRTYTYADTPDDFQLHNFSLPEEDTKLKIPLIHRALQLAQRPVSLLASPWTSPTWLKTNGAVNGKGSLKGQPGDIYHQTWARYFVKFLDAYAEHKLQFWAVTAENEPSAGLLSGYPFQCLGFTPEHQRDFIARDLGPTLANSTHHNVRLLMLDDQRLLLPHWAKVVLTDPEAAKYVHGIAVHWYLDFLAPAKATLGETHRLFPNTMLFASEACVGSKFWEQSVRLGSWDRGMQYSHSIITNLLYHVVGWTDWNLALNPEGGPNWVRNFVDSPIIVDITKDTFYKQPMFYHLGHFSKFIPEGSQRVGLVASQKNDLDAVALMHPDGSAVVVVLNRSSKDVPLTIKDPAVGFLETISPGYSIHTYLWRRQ

GCase = target: T4, GCase (Homo sapiens, UniProt P04062); assay: GCase activity in conditioned media of COS-7 cells transfected with human GBA1 plasmid, 72 h; format: cell-based; details: 72 hours expression
T4 construct: expressed in transfected cells; host or cells: COS-7
T4 sequence (P04062 40-536): T3 sequence (P04062 40-536)

GCase (Cerezyme®) [4] = target: T5, GCase (Cerezyme®) (Homo sapiens, UniProt P04062, R534H); assay: GCase activity over time in neutral or acidic buffer at 37° C. (4-MUG); format: biochemical; details: 1 μM IFG, 10 nM GCase, pH 7.4, 37° C.
T5 construct: purchased Genzyme Corp
T5 sequence (P04062 40-536 R534H): T3 sequence (P04062 40-536) with R495H

[5] = target: T6, acid β-glucosidase (GCase; Cerezyme®) (Homo sapiens, UniProt P04062, R534H); assay: SYPRO Orange thermal stability assay (heat denaturation) of GCase; format: binding
T6 construct: purchased Genzyme Corp
T6 sequence (P04062 40-536 R534H): T3 sequence (P04062 40-536) with R495H
Experimental: FIG. 4 depicts the results of a thermal stability assay that utilizes heat to induce protein denaturation, which is monitored using a SYPRO Orange dye that fluoresces upon binding to hydrophobic amino acids (which are not exposed in a folded protein). Isofagomine increases acid β-glucosidase thermostability as evident by increases in melting temperature in a dose-dependent manner. The experiment was conducted at pH 7.4.
FIG. 8 depicts the stability of recombinant human GCase (Cerazyme®, Genzyme Corp.) at neutral pH (7.4) or acidic pH (5.2) in the presence or absence of 10 μM of IFG as determined in a thermal stability assay. The thermal stability assay utilizes heat to induce protein denaturation, which is monitored using a SYPRO Orange dye that fluoresces upon binding to hydrophobic amino acids (which are not exposed in a folded protein).
A thermal stability experiment as generally described in Example 1 was performed on three compositions of GCase (Cerezyme®):
A thermal stability experiment as generally described in Examples 1 and 4 was performed on three compositions of GCase (Cerezyme®):
Protein denaturation was monitored using SYPRO Orange dye which fluoresces when bound to exposed hydrophobic amino acids.

GCase (Cerezyme®) [6] = target: T5, GCase (Cerezyme®); assay: GCase activity in human plasma at 37° C. (4-MUG); format: in vitro ADME; details: IFG 3 μM, 30 μM, 100 μM, over 4 hours
Experimental: FIG. 10 depicts the effects of IFG on recombinant human GCase (GCase; Cerezyme®, Genzyme Corp.) activity in human plasma at 37° C. GCase activity was evaluated to assess the ability of an ASSC to prolong the activity of GCase in human plasma over time. Cerezyme (0.5 μM) was incubated in human plasma with increasing concentrations of IFG (3 μM, 30 μM, or 100 μM) at 37° C. over 4 hours. Samples were assayed for GCase enzyme activity using 4-MU-β-glucose at 0.25, 0.5, 1, 2 and 4 hours and the residual GCase activity was expressed as % of initial activity.
The activity of GCase (0.5 μM; Cerazyme®) at 37° C. in human plasma was assessed for increasing concentrations of IFG (3 μM, 30 μM, and 100 μM) as a function time using the substrate 4-MUG.

[7] = target: T6, acid β-glucosidase (GCase; Cerezyme®); assay: SYPRO Orange GCase unfolding over time at 37° C.; format: binding
Experimental: FIG. 5 depicts a SYPRO Orange thermal stability experiment to monitor the unfolding of acid β-glucosidase (GCase; Cerezyme®). GCase (2 μM) was incubated in pH 7.4 or pH 5.2 buffer with or without 10 μM IFG at 37° C. and protein unfolding was monitored every hour over 24 hours.
FIG. 9 depicts a SYPRO Orange thermal stability experiment to monitor the unfolding of acid β-glucosidase (GCase; Cerezyme®). GCase was incubated in pH 7.4 or pH 5.2 buffer with or without 10 μM or 100 μM IFG at 37° C., and protein unfolding was monitored every hour over 24 hours.
FIG. 15 depicts that addition of 50 μM IFG at 3 or 6 hours after incubation of GCase (Cerezyme®) in neutral (pH 7.4) buffer at 37° C. prevents further denaturation of the enzyme as measured by SYPRO dye fluorescence.
In this thermal stability experiment, the concentration of IFG was 10 μM in formulation (3).
In this thermal stability experiment, the concentration of IFG was 0, 10 μM, or 100 μM as described above.
The stability of α-Gal A, α-Glucosidase (GAA), and GCase (Cerezyme®) at 37° C. in neutral (pH 7.4) buffer was measured using the SYPRO Orange for 3, 6 or 24 hours.

[8] = target: T7, recombinant human GAA (Myozyme®) (Homo sapiens, UniProt P10253); assay: Residual GAA enzyme activity (4-MU-α-glucose) on extended incubation at 37° C.; format: biochemical; details: 50 μM 1-DNJ, pH 7.4, 37° C., over 24 hours
T7 construct: purchased Genzyme Corp
Experimental: FIG. 2A depicts the effects of 1-DNJ-HCl on recombinant human GAA (rhGAA; Myozyme®, Genzyme Corp.) activity at neutral pH (7.4) or lysosomal pH (5.2) at 37° C. GAA activity was evaluated to assess the ability of an ASSC to prolong the activity of rhGAA over time. Myozyme (45 nM) was incubated in pH 7.4 or pH 5.2 buffer with or without 50 μM 1-DNJ at 37° C. over 24 hours. Samples were assayed for GAA enzyme activity using 4-MU-α-glucose at 0, 3, 6 and 24 hours and the residual GAA activity was expressed as % of initial activity.
Residual GAA activity was determined for four formulations:
Activity was measured, based on the % of initial activity (t=0) over 24 hours. Samples were assayed for GAA enzyme activity based on the hydrolysis of the fluorogenic substrate 4-MU-α-glucose at 0, 3, 6 and 24 hours. The GAA activity was expressed as % of initial activity, i.e. residual activity.

[9] = target: T7, recombinant human GAA (Myozyme®); assay: SYPRO Orange GAA unfolding over time at 37° C.; format: binding; details: 50 μM DNJ added at 3 or 6 hours, pH 7.4, 37° C.
α-Glucosidase (GAA) = target: T8, α-Glucosidase (GAA) (Homo sapiens, UniProt P10253); assay: GAA activity in conditioned media of COS-7 cells transfected with human GAA plasmid, 72 h; format: cell-based; details: 72 hours expression
T8 construct: expressed in transfected cells; host or cells: COS-7

[10] = target: T7, recombinant human GAA (Myozyme®); assay: SYPRO Orange thermal stability assay (heat denaturation) of GAA; format: binding
From the text: The thermal stability assay utilizes heat to induce protein denaturation, which is monitored using a SYPRO Orange dye that fluoresces upon binding to hydrophobic amino acids (which are not exposed in a folded protein).
FIG. 3 depicts the results of a thermal stability assay that utilizes heat to induce protein denaturation, which is monitored using a SYPRO Orange dye that fluoresces upon binding to hydrophobic amino acids (which are not exposed in a folded protein). […] The experiment was conducted at pH 7.4.
Denaturation is monitored using a SYPRO Orange dye that fluoresces upon binding to hydrophobic amino acids (which are not exposed in a folded protein).
The thermal stability was performed at pH 7.4 for two formulations, which corresponds to the pH of the ER.
A thermal stability experiment as generally described in Example 1 was performed on four compositions: […]

## OC[C@H]1NC[C@H](O)[C@@H](O)[C@H]1O [DGJ, 1-deoxygalactonorjirimycin]
α-Gal A [1]
  α-Gal A activity from conditioned media: increased slightly
α-Gal A [2]
  Further denaturation of α-Gal A: prevented further denaturation
α-Gal A (Fabrazyme®)
  α-Gal A thermal stability (melting temperature): increases α-Gal A thermal stability in a dose-dependent manner
α-Gal A [3]
  α-Gal A activity from conditioned media: increased the activities

## OC[C@H]1CNC[C@@H](O)[C@@H]1O [IFG, (3R,4R,5R)-5-(hydroxymethyl)-3,4-piperidinediol]
Acid β-glucosidase
  Acid β-glucosidase activity from conditioned media: increased the activities
GCase
  GCase activity recovered from conditioned media: increased the activity
GCase (Cerezyme®) [4]
  Stability of GCase activity over time: significantly increases the stability
[5]; 10 μM IFG, pH 7.4 (Example 8)
  Stability of recombinant human GCase upon thermal challenge: significantly increases stability
[5]; 10 and 100 μM IFG, pH 7.4
  GCase thermal stability (melting temperature): increases GCase thermal stability in a dose-dependent manner
GCase (Cerezyme®) [6]
  Stability of GCase activity in human plasma: significantly increases the stability of GCase and prevents enzyme inactivation
[7]; 10 μM IFG, pH 7.4, 37° C., over 24 hours (Example 5)
  GCase unfolding: prevented GCase unfolding
[7]; 10 μM and 100 μM IFG, neutral pH, 37° C. (Example 9)
  Stability of GCase (unfolding over time): significantly increases the stability
[7]; 50 μM IFG added at 3 or 6 hours, pH 7.4, 37° C.
  Further denaturation of GCase: prevented further denaturation

## OC[C@H]1NC[C@H](O)[C@@H](O)[C@@H]1O [DNJ, 1-deoxynorjirimycin]
[8]
  Effect on loss of GAA enzyme activity: ameliorates the loss of GAA enzyme activity
[9]
  Further denaturation of GAA: prevented further denaturation
α-Glucosidase (GAA)
  GAA activity recovered from conditioned media: little effect
[10]; 100 μM DNJ, pH 7.4, versus formulation without ASSC
  GAA thermal stability (heat required to denature): required significantly more heat to denature
[10]; 1, 10, 100 μM 1-DNJ-HCl, pH 7.4, dose-dependent
  GAA thermostability (melting temperature): increases GAA thermostability

## Myozyme: recombinant human GAA (Myozyme®, Genzyme Corp.)
[10]; pH 5.2 versus pH 7.4, no chaperone
  Stability of Myozyme at lysosomal versus neutral pH (thermal stability assay): much more stable at lysosomal pH (5.2) than at neutral pH (7.4)

## O[C@H]1[C@H](O)CNC[C@@H]1C(F)F [AT3375]
GCase
  GCase activity recovered from conditioned media: increased the activity
α-Gal A [1]
  α-Gal A activity from conditioned media: increased slightly
